Source: ChEMBL document CHEMBL5346907, “Discovery of a novel oral type Ⅰ CDK8 inhibitor against acute myeloid leukemia” (Eur J Med Chem, 2023)
Activity calls are given as the source filed them. The rule behind the calls is not given here.

Columns and labels:
[1] = biological target: Fibroblast growth factor receptor 2 (Homo sapiens) (UniProt P21802); test: Inhibition of FGFR2 (unknown origin) at 1 uM preincubated for 10 mins followed by substrate addition measured for 60 to 120 mins by HTRF assay relative to control; conditions: time 70-130 min
[2] = test system: HL-60; test: Effect on cell cycle at S phase in human HL-60 cells at 1 to 10 uM incubated for 48 hrs by […]PI staining based flow cytometry; format: functional; conditions: dose 1-10 µM
[3] = biological target: Receptor tyrosine-protein kinase erbB-4 (Homo sapiens) (UniProt Q15303); test: Inhibition of HER4 (unknown origin) at 1 uM preincubated for 10 mins followed by substrate addition measured for 60 to 120 mins by HTRF assay relative to control; conditions: time 70-130 min
[4] = biological target: Tyrosine-protein kinase Lyn (Homo sapiens) (UniProt P07948); test: Inhibition of LYN a (unknown origin) at 1 uM preincubated for 10 mins followed by substrate addition measured for 60 to 120 mins by HTRF assay relative to control; conditions: time 70-130 min
Chain of Tyrosine-protein kinase Lyn (Homo sapiens) (P07948 2-512 limits assumed): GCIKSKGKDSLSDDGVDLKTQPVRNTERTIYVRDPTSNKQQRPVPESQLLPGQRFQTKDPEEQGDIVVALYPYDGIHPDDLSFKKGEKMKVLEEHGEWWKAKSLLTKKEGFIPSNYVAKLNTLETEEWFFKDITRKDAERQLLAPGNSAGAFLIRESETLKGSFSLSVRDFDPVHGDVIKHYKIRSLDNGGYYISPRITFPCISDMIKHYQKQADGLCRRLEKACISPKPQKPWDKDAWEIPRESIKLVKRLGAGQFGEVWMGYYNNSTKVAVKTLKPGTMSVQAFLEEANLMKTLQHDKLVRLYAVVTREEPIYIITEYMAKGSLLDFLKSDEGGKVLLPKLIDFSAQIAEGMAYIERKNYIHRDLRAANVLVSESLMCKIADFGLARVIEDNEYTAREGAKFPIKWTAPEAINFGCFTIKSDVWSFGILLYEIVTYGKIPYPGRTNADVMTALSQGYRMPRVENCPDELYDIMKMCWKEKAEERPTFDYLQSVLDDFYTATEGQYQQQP

[5] = Toxicity in AML […] mouse model allografted with mouse C1498 cells assessed as body weight loss at 40 to 80 mg/kg, po administered daily for 15 days measured on every 2 days; format: organism-based; conditions: in vivo, 360 h, dose 40-80 mg/kg, time 15 day
[6] = test system: SW480; test: Antiproliferative activity against human SW480 cells incubated for 48 hrs by CCK8 assay; format: functional
[7] = biological target: Tyrosine-protein kinase ITK/TSK (Homo sapiens) (UniProt Q08881); test: Inhibition of ITK (unknown origin) at 1 uM preincubated for 10 mins followed by substrate addition measured for 60 to 120 mins by HTRF assay relative to control; conditions: time 70-130 min
Chain of Tyrosine-protein kinase ITK/TSK (Homo sapiens) (Q08881 whole entry): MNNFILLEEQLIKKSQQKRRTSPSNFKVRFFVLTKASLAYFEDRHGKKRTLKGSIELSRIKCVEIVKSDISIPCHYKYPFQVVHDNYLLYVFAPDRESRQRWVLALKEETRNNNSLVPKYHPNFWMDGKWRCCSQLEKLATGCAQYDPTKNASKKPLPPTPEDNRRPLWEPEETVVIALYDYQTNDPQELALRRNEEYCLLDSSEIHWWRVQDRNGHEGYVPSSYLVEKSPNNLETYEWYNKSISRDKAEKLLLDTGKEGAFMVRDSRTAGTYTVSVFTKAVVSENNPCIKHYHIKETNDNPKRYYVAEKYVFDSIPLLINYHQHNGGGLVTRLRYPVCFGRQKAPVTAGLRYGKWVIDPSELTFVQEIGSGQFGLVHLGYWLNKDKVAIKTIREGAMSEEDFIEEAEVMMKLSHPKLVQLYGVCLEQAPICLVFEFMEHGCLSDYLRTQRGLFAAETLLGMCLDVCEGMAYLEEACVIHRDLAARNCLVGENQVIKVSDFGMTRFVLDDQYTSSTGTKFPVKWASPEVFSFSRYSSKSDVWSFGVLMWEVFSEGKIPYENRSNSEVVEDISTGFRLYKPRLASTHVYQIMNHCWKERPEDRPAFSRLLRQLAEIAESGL

[8] = biological target: Receptor tyrosine-protein kinase erbB-2 (Homo sapiens) (UniProt P04626); test: Inhibition of HER2 (unknown origin) at 1 uM preincubated for 10 mins followed by substrate addition measured for 60 to 120 mins by HTRF assay relative to control; conditions: time 70-130 min
[9] = biological target: Macrophage colony-stimulating factor 1 receptor (Homo sapiens) (UniProt P07333); test: Inhibition of CSF1R (unknown origin) at 1 uM preincubated for 10 mins followed by substrate addition measured for 60 to 120 mins by HTRF assay relative to control; conditions: time 70-130 min
Chain of Macrophage colony-stimulating factor 1 receptor (Homo sapiens) (P07333 whole entry): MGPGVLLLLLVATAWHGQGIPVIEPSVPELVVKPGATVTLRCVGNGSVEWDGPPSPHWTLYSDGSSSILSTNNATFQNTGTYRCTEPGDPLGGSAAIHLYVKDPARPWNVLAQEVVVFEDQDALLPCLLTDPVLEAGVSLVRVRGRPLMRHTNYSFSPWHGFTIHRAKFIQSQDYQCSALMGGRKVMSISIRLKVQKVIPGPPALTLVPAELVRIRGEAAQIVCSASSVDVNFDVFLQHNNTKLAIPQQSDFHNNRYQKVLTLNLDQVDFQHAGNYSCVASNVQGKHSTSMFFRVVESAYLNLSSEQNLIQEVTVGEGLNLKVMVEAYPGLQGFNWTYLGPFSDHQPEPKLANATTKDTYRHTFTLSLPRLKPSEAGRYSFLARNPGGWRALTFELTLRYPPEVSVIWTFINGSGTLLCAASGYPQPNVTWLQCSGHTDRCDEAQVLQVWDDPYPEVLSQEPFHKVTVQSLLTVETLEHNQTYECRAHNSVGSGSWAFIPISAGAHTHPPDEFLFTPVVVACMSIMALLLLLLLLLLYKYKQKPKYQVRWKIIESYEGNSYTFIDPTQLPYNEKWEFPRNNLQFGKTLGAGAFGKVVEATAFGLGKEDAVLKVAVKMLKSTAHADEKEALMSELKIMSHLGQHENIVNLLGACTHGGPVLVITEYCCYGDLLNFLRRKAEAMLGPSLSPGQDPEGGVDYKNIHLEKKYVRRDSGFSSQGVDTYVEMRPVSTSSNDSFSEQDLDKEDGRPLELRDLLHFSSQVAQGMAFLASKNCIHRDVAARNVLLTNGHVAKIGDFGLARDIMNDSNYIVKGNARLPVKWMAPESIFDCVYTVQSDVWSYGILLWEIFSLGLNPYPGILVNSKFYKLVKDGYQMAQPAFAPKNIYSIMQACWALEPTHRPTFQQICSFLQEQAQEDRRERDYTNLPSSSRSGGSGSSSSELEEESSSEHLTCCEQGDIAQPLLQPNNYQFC

[10] = biological target: Tyrosine-protein kinase CSK (Homo sapiens) (UniProt P41240); test: Inhibition of CSK (unknown origin) at 1 uM preincubated for 10 mins followed by substrate addition measured for 60 to 120 mins by HTRF assay relative to control; conditions: time 70-130 min
[11] = biological target: CDK4/Cyclin D3 (Homo sapiens) (UniProt P11802+P30281); test: Inhibition of CDK4/Cyclin D3 (unknown origin) at 1 uM preincubated for 10 mins followed by substrate addition measured for 60 to 120 mins by HTRF assay relative to control; format: protein-complex assay; conditions: time 70-130 min
[12] = biological target: Tyrosine-protein kinase SYK (Homo sapiens) (UniProt P43405); test: Inhibition of SYK (unknown origin) at 1 uM preincubated for 10 mins followed by substrate addition measured for 60 to 120 mins by HTRF assay relative to control; conditions: time 70-130 min
[13] = biological target: Tyrosine-protein kinase Lyn (Homo sapiens) (UniProt P07948); test: Inhibition of LYNb (unknown origin) at 1 uM preincubated for 10 mins followed by substrate addition measured for 60 to 120 mins by HTRF assay relative to control; conditions: time 70-130 min
[14] = biological target: Discoidin domain-containing receptor 2 (Homo sapiens) (UniProt Q16832); test: Inhibition of DDR2 (unknown origin) at 1 uM preincubated for 10 mins followed by substrate addition measured for 60 to 120 mins by HTRF assay relative to control; conditions: time 70-130 min
Chain of Discoidin domain-containing receptor 2 (Homo sapiens) (Q16832 whole entry, the tested form may be a part): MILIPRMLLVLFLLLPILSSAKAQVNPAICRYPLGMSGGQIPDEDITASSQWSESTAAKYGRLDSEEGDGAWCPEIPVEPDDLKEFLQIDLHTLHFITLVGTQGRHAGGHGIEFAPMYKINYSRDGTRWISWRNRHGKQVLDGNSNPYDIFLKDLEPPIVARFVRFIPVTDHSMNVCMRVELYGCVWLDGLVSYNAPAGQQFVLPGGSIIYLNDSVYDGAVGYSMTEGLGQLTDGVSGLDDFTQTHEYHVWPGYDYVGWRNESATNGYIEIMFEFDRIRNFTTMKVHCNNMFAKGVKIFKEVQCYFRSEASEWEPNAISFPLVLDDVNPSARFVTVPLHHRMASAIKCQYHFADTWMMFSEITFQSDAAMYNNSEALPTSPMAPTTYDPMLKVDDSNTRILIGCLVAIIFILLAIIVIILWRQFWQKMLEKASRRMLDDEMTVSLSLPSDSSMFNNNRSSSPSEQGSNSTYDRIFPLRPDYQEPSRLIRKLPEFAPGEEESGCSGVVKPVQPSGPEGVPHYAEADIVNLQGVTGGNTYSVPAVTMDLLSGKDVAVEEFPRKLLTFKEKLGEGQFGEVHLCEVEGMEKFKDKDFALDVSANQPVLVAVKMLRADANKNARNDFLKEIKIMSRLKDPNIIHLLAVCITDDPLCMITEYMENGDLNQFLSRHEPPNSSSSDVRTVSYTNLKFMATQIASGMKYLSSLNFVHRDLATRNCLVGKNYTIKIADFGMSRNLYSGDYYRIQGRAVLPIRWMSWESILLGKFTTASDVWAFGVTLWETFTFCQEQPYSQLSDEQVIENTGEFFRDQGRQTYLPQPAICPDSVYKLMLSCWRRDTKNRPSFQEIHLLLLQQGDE

[15] = test system: HL-60; test: Induction of apoptosis in human HL-60 cells assessed as late apoptotic cells at 10 uM incubated for 48 hrs by annexin V-FITC/PI staining based flow cytometry (reference value: 1.07 %); format: functional
[16] = Acute toxicity in C57BL/6 mouse assessed as histopathological change in heart at 2000 mg/kg, IG measured for 14 days by H&E staining based analysis; format: organism-based; conditions: in vivo, po, 336 h, time 14 day
[17] = biological target: Muscle, skeletal receptor tyrosine-protein kinase (Homo sapiens) (UniProt O15146); test: Inhibition of MUSK (unknown origin) at 1 uM preincubated for 10 mins followed by substrate addition measured for 60 to 120 mins by HTRF assay relative to control; conditions: time 70-130 min
[18] = biological target: Cyclin-dependent kinase 8 (Homo sapiens, UniProt P49336); test: Binding affinity to flag-tagged CDK8 (unknown origin) transfected in HEK-293T cells upto 4 uM incubated for 12 hrs by biotin pull down based Western blot analysis; format: cell-based
[19] = biological target: Macrophage-stimulating protein receptor (Homo sapiens) (UniProt Q04912); test: Inhibition of RON (unknown origin) at 1 uM preincubated for 10 mins followed by substrate addition measured for 60 to 120 mins by HTRF assay relative to control; conditions: time 70-130 min
[20] = AUC (0 to infinity) in Sprague-Dawley rat at 2 mg/kg, iv; format: ADME, organism-based; set-up: dose 2 mg/kg, route iv; conditions: in vivo
[21] = biological target: Fibroblast growth factor receptor 4 (Homo sapiens) (UniProt P22455); test: Inhibition of FGFR4 (unknown origin) at 1 uM preincubated for 10 mins followed by substrate addition measured for 60 to 120 mins by HTRF assay relative to control; conditions: time 70-130 min
[22] = test system: HL-60; test: Induction of apoptosis in human HL-60 cells assessed as viable cells at 1 uM incubated for 48 hrs by annexin V-FITC/PI staining based flow cytometry (reference value: 96.5 %); format: functional; conditions: read-out: Activity
[23] = biological target: Activated CDC42 kinase 1 (Homo sapiens) (UniProt Q07912); test: Inhibition of ACK (unknown origin) at 1 uM preincubated for 10 mins followed by substrate addition measured for 60 to 120 mins by HTRF assay relative to control; conditions: time 70-130 min
[24] = test system: A-375; test: Antiproliferative activity against human A-375 cells incubated for 48 hrs by CCK8 assay; format: functional
[25] = test system: A549; test: Antiproliferative activity against human A549 cells incubated for 48 hrs by CCK8 assay; format: functional
[26] = test system: MGC-803; test: Antiproliferative activity against human MGC-803 cells incubated for 48 hrs by CCK8 assay; format: functional
[27] = Tmax in Sprague-Dawley rat at 10 mg/kg, po; format: ADME, organism-based; conditions: in vivo
[28] = biological target: Ephrin type-A receptor 8 (Homo sapiens) (UniProt P29322); test: Inhibition of EPHA8 (unknown origin) at 1 uM preincubated for 10 mins followed by substrate addition measured for 60 to 120 mins by HTRF assay relative to control; conditions: time 70-130 min
[29] = Cmax in Sprague-Dawley rat at 2 mg/kg, iv; format: ADME, organism-based; set-up: dose 2 mg/kg, route iv; conditions: in vivo
[30] = biological target: Insulin receptor (Homo sapiens) (UniProt P06213); test: Inhibition of INSR (unknown origin) at 1 uM preincubated for 10 mins followed by substrate addition measured for 60 to 120 mins by HTRF assay relative to control; conditions: time 70-130 min
Chain of Insulin receptor (Homo sapiens) (P06213 28-758 limits assumed): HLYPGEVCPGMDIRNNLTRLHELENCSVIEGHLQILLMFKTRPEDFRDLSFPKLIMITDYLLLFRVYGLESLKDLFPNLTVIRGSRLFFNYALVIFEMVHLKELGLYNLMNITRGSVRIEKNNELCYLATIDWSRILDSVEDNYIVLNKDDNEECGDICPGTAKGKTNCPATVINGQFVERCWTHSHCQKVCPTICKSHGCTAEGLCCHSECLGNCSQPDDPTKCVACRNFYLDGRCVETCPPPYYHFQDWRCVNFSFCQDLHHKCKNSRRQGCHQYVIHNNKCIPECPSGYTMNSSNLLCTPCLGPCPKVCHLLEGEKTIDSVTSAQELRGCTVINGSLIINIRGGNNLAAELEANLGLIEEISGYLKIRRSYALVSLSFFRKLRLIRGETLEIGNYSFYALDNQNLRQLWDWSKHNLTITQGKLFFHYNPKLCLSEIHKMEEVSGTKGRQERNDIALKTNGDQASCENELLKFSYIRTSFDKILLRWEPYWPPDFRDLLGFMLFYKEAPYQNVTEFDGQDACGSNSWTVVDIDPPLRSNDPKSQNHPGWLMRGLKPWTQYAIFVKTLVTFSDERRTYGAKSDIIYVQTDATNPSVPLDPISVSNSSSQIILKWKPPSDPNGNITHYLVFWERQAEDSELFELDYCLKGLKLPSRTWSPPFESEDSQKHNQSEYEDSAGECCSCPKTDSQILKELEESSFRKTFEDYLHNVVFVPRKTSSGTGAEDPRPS
Chain of Insulin receptor (Homo sapiens) (P06213 763-1382 limits assumed): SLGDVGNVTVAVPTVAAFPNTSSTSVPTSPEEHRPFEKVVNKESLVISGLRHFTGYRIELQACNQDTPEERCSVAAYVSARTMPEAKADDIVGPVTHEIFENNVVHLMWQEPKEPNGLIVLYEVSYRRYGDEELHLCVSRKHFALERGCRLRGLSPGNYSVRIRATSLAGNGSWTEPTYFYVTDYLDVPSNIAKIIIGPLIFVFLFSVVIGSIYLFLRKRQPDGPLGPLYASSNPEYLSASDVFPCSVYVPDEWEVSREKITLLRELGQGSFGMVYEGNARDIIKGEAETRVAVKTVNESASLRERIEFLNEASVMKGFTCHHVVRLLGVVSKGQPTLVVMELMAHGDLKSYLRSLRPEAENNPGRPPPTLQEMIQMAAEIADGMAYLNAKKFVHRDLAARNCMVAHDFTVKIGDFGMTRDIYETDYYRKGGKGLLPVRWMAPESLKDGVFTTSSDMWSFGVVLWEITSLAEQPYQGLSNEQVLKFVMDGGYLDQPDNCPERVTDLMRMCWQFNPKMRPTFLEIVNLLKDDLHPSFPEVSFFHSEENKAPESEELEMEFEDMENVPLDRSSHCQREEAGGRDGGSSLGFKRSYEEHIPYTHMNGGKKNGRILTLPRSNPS

[31] = biological target: CDK1/Cyclin A (Homo sapiens) (UniProt P06493+P20248); test: Inhibition of CDK1/Cyclin A2 (unknown origin) at 1 uM preincubated for 10 mins followed by substrate addition measured for 60 to 120 mins by HTRF assay relative to control; format: protein-complex assay; conditions: time 70-130 min
Chain of CDK1/Cyclin A (Homo sapiens) (P06493 whole entry, looked up): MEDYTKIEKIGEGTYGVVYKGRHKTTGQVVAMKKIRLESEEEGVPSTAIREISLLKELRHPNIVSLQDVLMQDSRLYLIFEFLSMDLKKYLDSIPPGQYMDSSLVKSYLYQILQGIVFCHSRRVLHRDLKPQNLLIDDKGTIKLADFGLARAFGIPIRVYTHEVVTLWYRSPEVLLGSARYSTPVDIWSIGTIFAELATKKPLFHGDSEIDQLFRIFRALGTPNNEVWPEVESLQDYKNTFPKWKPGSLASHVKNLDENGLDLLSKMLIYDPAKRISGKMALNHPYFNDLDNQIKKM
Chain of CDK1/Cyclin A (Homo sapiens) (P20248 whole entry, looked up): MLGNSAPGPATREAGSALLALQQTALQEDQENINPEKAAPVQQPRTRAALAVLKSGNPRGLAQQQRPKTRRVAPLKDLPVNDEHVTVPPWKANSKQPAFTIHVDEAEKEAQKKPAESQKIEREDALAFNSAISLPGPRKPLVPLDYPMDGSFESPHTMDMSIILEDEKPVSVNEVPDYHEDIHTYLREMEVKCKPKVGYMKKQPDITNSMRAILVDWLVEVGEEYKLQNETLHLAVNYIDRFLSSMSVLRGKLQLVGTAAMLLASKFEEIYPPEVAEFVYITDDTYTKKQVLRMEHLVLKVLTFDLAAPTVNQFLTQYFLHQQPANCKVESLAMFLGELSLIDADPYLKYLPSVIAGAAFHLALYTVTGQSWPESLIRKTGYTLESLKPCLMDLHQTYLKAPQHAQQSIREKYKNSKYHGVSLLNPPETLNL

[32] = test system: C1498; test: Antitumor activity against mouse C1498 cells allografted in AML Balb/C mouse model assessed as decrease in Ki67 expression administered orally daily for 15 days measured after 3 weeks by IHC analysis; format: functional, cell-based; conditions: dose 40-80 mg/kg, route po, time 15.0 day

With `NC(=O)c1cccc(-c2cnc3[nH]ccc3c2)c1` the inhibition [1] was 4.02%, the Activity [2] was “inactive” and the inhibition [3] was 0%. The inhibition [4] was 15.4%, the Activity [5] was “Non-Toxic” and the GI50 [6] was greater than 50 µM. It also gave an inhibition [7] of 0%, an inhibition [8] of 3.32% and an inhibition [9] of 0%. For the same compound, the inhibition [10] was 0%, the inhibition [11] was 7.02% and the inhibition [12] was 4.7%. It also gave an inhibition [13] of 13.1%, an inhibition [14] of 0% and an Activity [15] of 2.43%. For the same compound, the Activity [16] was “Non-Toxic”, the inhibition [17] was 3.63% and the Activity [18] was “Active”. For the same compound, the inhibition [19] was 0.43%, the AUC(0-inf) [20] was 310 ng·h/mL and the inhibition [21] was 14.1%. The viability at 1 µM [22] was 93.3%, the inhibition [23] was 21.6% and the GI50 [24] was greater than 50 µM. It also gave a GI50 [25] greater than 50 µM, a GI50 [26] greater than 50 µM and a Tmax [27] of 1 h. The inhibition [28] was 0%, the Cmax [29] was 231 ng/mL and the inhibition [30] was 7.74%. For the same compound, the inhibition [31] was 8.45% and the Activity [32] was “Dose-Dependent Effect”.
